ChEMBL document CHEMBL4411283, “The p53 stabilizing agent CP-31398 and multi-kinase inhibitors. Designing, synthesizing and screening of styrylquinazoline series” (Eur J Med Chem, 2019)

Assays:
[1] = target: Tyrosine-protein kinase ABL1 (Homo sapiens) (UniProt P00519); conditions: at 0.5 µM
Description: Inhibition of ABL1 (unknown origin) at 0.5 uM preincubated for 10 mins followed by substrate addition and measured after 1 hr by ADP-Glo luminescence assay relative to control

MCF7 = test: cells; conditions: Homo sapiens, MCF7, 72 h
Description: Antiproliferative activity against human MCF7 cells after 72 hrs by CellTiter 96 aqueous one solution assay

HCT-116 [2] = test: cells; conditions: Homo sapiens, HCT-116, 72 h
Description: Antiproliferative activity against p53+/+ human HCT116 cells after 72 hrs by CellTiter 96 aqueous one solution assay

HCT-116 [3] = test: cells; conditions: Homo sapiens, HCT-116, 72 h; remark: listed apart in the source
Description: Antiproliferative activity against p53-/- human HCT116 cells after 72 hrs by CellTiter 96 aqueous one solution assay

A549 = test: cells; conditions: Homo sapiens, A549, 72 h
Description: Antiproliferative activity against human A549 cells after 72 hrs by CellTiter 96 aqueous one solution assay

NHDF = test: cells; conditions: Homo sapiens, 72 h
Description: Antiproliferative activity against human NHDF cells after 72 hrs by CellTiter 96 aqueous one solution assay

[4] = target: T1, Tyrosine-protein kinase Fyn (Homo sapiens, UniProt P06241); test: Inhibition of Fyn A (unknown origin) at 0.5 uM preincubated for 10 mins followed by substrate addition and measured after 1 hr by ADP-Glo luminescence assay relative to control
Target sequence in this assay (P06241 2-537 limits assumed): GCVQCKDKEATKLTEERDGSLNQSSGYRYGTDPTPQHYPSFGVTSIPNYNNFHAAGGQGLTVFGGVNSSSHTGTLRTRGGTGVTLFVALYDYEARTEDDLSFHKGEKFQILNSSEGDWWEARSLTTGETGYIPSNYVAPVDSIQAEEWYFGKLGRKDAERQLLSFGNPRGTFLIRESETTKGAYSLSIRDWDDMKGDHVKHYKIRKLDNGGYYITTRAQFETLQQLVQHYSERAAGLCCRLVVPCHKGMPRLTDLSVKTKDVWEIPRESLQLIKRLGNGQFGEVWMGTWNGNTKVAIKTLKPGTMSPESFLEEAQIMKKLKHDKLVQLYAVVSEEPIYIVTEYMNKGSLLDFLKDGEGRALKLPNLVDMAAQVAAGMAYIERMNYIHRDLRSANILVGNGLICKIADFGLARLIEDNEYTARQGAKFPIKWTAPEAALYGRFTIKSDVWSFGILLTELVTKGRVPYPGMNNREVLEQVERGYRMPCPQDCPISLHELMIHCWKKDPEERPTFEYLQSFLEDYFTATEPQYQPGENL

[5] = target: T2, Tyrosine-protein kinase BTK (Homo sapiens, UniProt Q06187); test: Inhibition of BTK (unknown origin) preincubated for 10 mins followed by substrate addition and measured after 1 hr by ADP-Glo luminescence assay
[6] = target: Tyrosine-protein kinase Lck (Homo sapiens) (UniProt P06239); test: Inhibition of human LCK at 20 uM using poly[Glu:Tyr] (4:1) as substrate by [gamma-33P]-ATP assay relative to control
[7] = target: T3, Tyrosine-protein kinase Lyn (Homo sapiens, UniProt P07948); test: Inhibition of human LYN-B using poly[Glu:Tyr] (4:1) as substrate by [gamma-33P]-ATP assay
[8] = target: T2, Tyrosine-protein kinase BTK; test: Inhibition of human BTK using KVEKIGEGTYGVVYK as substrate by [gamma-33P]-ATP assay
[9] = target: Tyrosine-protein kinase ABL1 (Homo sapiens) (UniProt P00519); test: Inhibition of human ABL1 at 20 uM using EAIYAAPFAKKK as substrate by [gamma-33P]-ATP assay relative to control
[10] = target: Tyrosine-protein kinase CSK (Homo sapiens, UniProt P41240); test: Inhibition of human CSK using poly[Glu:Tyr] (4:1) as substrate by [gamma-33P]-ATP assay
[11] = target: T1, Tyrosine-protein kinase Fyn; test: Inhibition of human FYN at 20 uM using poly[Glu:Tyr] (4:1) as substrate by [gamma-33P]-ATP assay relative to control
Target sequence in this assay (P06241 2-537 limits assumed): as above

[12] = target: T4, Receptor tyrosine-protein kinase erbB-4 (Homo sapiens, UniProt Q15303); test: Inhibition of human ERBB4 using poly[Glu:Tyr] (4:1) as substrate by [gamma-33P]-ATP assay
[13] = target: T3, Tyrosine-protein kinase Lyn; test: Inhibition of human LYN at 20 uM using poly[Glu:Tyr] (4:1) as substrate by [gamma-33P]-ATP assay relative to control
[14] = target: Calcium/calmodulin-dependent protein kinase type 1G (Homo sapiens, UniProt Q96NX5); test: Inhibition of human CAMK1G using KKALRRQETVDAL as substrate by [gamma-33P]-ATP assay
[15] = target: T1, Tyrosine-protein kinase Fyn; test: Inhibition of Fyn A (unknown origin) preincubated for 10 mins followed by substrate addition and measured after 1 hr by ADP-Glo luminescence assay
Target sequence in this assay (P06241 whole entry): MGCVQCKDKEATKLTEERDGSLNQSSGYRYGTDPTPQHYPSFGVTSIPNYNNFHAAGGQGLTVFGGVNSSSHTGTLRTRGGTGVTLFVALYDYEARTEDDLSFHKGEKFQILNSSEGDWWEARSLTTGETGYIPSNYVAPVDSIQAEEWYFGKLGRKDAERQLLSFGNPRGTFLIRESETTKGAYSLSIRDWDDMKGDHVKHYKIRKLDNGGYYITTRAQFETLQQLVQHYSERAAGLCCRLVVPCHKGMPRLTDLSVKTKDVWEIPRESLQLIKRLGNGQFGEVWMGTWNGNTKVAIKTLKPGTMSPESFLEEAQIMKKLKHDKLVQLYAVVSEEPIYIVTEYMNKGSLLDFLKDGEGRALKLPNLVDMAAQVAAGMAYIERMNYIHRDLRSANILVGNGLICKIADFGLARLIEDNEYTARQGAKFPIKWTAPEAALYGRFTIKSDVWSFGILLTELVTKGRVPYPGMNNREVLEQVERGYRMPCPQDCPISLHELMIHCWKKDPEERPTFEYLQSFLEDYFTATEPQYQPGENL

Nociceptin receptor = Nociceptin receptor (Homo sapiens, UniProt P41146); test: Displacement of [3H]-nociceptin from human nociceptin receptor expressed in cell membranes after 60 mins by liquid scintillation counting analysis
[16] = target: T4, Receptor tyrosine-protein kinase erbB-4; test: Inhibition of human wild type ERBB4 (L690 to K994 residues) expressed in bacterial expression system at 5 uM relative to control

T2 sequence (Q06187 whole entry): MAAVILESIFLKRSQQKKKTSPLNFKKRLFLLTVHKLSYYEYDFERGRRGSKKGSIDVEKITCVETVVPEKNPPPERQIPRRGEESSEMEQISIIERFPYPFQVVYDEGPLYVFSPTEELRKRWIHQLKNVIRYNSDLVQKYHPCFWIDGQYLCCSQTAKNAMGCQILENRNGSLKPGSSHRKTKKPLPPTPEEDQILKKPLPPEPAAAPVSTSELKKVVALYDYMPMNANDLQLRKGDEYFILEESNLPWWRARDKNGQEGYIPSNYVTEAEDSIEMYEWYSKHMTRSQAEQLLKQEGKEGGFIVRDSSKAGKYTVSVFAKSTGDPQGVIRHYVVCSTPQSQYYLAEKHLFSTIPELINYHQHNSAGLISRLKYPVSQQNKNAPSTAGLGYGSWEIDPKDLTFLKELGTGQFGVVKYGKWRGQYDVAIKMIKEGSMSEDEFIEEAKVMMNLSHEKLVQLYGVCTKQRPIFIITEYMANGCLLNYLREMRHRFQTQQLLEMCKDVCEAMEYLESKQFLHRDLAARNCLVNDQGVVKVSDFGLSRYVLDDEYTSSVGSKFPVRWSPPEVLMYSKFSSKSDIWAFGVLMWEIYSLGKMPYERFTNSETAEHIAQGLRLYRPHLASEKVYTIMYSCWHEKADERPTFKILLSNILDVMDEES
T4 sequence (Q15303 whole entry): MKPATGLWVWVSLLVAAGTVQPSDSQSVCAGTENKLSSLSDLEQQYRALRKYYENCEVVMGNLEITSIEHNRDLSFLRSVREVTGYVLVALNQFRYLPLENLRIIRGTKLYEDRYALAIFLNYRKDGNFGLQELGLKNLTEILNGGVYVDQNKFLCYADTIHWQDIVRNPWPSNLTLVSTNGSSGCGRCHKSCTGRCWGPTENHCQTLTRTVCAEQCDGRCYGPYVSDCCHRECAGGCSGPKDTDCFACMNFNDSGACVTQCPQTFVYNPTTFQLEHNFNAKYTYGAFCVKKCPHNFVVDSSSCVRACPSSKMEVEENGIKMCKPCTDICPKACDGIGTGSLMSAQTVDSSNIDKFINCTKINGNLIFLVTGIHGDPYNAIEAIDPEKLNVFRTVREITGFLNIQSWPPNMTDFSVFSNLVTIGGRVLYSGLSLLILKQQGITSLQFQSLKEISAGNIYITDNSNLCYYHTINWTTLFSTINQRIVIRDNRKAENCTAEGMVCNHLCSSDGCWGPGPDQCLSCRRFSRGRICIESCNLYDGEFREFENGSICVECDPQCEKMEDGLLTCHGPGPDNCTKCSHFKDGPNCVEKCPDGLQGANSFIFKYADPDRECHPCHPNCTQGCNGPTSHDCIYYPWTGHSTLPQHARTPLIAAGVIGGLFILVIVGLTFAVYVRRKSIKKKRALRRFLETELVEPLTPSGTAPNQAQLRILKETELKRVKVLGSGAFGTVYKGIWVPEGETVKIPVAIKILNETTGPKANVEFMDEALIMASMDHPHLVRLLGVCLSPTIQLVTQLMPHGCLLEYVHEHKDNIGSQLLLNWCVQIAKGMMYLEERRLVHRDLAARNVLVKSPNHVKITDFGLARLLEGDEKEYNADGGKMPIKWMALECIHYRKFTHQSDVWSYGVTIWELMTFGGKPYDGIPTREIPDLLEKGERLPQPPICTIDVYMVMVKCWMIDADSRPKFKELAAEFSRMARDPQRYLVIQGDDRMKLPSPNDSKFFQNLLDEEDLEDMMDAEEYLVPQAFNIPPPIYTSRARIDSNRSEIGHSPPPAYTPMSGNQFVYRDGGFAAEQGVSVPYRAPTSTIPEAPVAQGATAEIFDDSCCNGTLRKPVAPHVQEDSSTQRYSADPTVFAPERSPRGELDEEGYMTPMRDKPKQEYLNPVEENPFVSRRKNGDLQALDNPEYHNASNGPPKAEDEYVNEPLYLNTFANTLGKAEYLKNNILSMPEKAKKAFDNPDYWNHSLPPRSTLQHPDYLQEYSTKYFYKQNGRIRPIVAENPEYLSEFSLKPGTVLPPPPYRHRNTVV
Sequence of Tyrosine-protein kinase ABL1 (Homo sapiens) (P00519 whole entry): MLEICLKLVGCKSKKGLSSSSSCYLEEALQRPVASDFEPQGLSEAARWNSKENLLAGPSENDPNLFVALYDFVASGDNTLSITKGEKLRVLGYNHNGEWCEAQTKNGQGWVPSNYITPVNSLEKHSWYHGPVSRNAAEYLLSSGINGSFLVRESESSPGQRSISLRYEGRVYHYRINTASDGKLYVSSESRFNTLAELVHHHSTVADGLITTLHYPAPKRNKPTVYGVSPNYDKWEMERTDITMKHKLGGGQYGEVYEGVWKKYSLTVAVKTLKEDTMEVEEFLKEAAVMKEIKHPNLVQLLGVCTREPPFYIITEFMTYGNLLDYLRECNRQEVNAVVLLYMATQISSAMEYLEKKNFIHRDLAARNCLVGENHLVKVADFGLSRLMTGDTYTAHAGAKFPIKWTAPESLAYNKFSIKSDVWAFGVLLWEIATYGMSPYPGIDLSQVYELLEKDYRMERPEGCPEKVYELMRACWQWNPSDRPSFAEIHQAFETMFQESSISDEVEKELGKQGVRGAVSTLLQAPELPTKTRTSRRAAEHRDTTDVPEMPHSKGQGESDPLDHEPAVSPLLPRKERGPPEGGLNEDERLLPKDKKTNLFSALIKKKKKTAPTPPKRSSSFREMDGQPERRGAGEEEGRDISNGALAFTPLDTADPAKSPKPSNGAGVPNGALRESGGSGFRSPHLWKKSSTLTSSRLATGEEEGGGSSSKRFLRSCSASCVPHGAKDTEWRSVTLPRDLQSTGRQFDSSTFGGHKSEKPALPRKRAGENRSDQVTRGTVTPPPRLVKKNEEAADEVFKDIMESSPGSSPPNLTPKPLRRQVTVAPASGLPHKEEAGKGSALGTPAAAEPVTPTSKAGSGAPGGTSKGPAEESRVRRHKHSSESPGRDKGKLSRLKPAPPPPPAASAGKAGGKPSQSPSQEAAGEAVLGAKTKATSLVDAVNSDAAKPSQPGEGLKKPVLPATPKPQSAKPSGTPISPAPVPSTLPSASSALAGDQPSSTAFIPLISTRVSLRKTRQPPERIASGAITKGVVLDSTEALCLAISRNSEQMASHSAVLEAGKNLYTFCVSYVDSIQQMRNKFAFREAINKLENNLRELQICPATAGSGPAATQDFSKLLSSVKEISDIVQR
Sequence of Nociceptin receptor (P41146 whole entry, the tested form may be a part): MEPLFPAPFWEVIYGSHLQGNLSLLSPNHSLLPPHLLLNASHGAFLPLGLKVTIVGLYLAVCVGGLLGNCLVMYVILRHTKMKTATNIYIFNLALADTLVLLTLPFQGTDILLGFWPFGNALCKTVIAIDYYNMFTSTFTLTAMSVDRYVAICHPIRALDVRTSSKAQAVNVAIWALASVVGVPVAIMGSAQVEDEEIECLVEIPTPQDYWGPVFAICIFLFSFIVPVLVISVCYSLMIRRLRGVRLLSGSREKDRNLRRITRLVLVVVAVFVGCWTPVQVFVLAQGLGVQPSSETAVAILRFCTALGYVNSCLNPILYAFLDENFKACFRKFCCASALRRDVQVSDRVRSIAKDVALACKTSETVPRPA
Sequence of Calcium/calmodulin-dependent protein kinase type 1G (Q96NX5 whole entry): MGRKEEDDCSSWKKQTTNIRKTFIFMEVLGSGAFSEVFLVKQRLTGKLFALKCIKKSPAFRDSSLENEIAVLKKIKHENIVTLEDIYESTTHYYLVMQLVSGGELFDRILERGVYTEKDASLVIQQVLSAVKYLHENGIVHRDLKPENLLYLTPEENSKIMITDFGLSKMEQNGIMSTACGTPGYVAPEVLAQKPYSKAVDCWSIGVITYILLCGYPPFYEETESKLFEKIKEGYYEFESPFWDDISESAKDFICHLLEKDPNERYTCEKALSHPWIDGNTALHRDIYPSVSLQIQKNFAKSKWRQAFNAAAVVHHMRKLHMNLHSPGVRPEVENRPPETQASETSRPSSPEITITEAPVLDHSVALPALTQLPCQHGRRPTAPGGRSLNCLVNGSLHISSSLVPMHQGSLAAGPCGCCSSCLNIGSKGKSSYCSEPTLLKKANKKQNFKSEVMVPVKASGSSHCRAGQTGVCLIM

IC50 (MCF7) | IC50 (HCT-116 [2]) | IC50 (HCT-116 [3]) | IC50 (A549) | IC50 (NHDF) | inhibition [4] | SMILES | also measured
> 25 µM | > 25 µM | > 25 µM | > 25 µM | > 25 µM | 76% | COc1ccc(Cl)c(Nc2ncnc3cc(OCC4CCN(C)CC4)c(OC)cc23)c1 [AZM-475271] | inhibition [1]: 8%
> 25 µM | > 25 µM | 23 µM | > 25 µM | > 25 µM | 19% | CC(=O)Oc1ccc(/C=C/c2nc3ccccc3c(=O)[nH]2)c(OC(C)=O)c1 | 
7.84 µM | > 25 µM | > 25 µM | > 25 µM | > 25 µM | 63% | COc1ccc(OC)c(Nc2nc(/C=C/c3ccccc3OC(C)=O)nc3ccccc23)c1 | 
> 25 µM | > 25 µM | 17.2 µM | > 25 µM | > 25 µM | 0% | CC(=O)Oc1ccccc1/C=C/c1nc2ccccc2c(=O)[nH]1 | 
> 25 µM | > 25 µM | > 25 µM | > 25 µM |  | 2% | COc1ccc(/C=C/c2nc3ccccc3c(=O)[nH]2)cc1 | 
 | > 25 µM | > 25 µM |  |  | 29% | O=c1[nH]c(/C=C/c2ccc([N+](=O)[O-])cc2)nc2ccccc12 | 
27 µM |  |  | > 25 µM |  | 31% | COc1ccc(/C=C/c2nc(NCCCN(C)C)c3ccccc3n2)cc1 | 
> 25 µM | > 25 µM | > 25 µM | > 25 µM |  | 0% | CCCCOc1ccc(/C=C/c2nc3ccccc3c(=O)[nH]2)cc1 | 
6.37 µM | 15.3 µM | 9.29 µM | > 25 µM | > 25 µM | 0% | CC(=O)Oc1cccc(/C=C/c2nc3ccccc3c(=O)[nH]2)c1 | 
4.45 µM | 2.47 µM | 1.46 µM | > 25 µM | > 25 µM | 0% | COc1ccccc1/C=C/c1nc2ccccc2c(=O)[nH]1 | IC50 [5]: 0.456 µM
 | > 25 µM | > 25 µM |  |  | 4% | O=c1[nH]c(/C=C/c2ccc3c(c2)OCO3)nc2ccccc12 | 
> 25 µM | > 25 µM | > 25 µM | > 25 µM |  | 0% | O=c1[nH]c(/C=C/c2cc3c(cc2Br)OCO3)nc2ccccc12 | 
 | > 25 µM | > 25 µM |  |  | 40% | O=c1[nH]c(/C=C/c2cccc3c2OCO3)nc2ccccc12 | 
6.26 µM | 23.3 µM | 6.43 µM | 21.8 µM | > 25 µM | 0% | CCOc1ccccc1/C=C/c1nc2ccccc2c(=O)[nH]1 | 
 | > 25 µM | > 25 µM |  |  | 0% | O=c1[nH]c(/C=C/c2cccc([N+](=O)[O-])c2)nc2ccccc12 | 
9.19 µM | 21.9 µM | 22.7 µM | 14.8 µM | 14.2 µM | 0% | Oc1ccc(Nc2nc(/C=C/c3cccc(Cl)c3)nc3ccccc23)cc1 | 
4.38 µM | 4.38 µM | 5.03 µM | 7.41 µM | 4.59 µM | 0% | Oc1cccc(Nc2nc(/C=C/c3cc4c(cc3Br)OCO4)nc3ccccc23)c1 | IC50 [5]: 0.287 µM
12.8 µM | > 25 µM | > 25 µM | 13.8 µM | 14.8 µM | 61% | O=c1[nH]c(/C=C/c2c(Br)ccc3c2OCO3)nc2ccccc12 | 

IC50 (MCF7) | IC50 (HCT-116 [2]) | IC50 (HCT-116 [3]) | IC50 (A549) | IC50 (NHDF) | inhibition [4] | SMILES | also measured
 | > 25 µM | > 25 µM |  |  | 0% | Oc1cccc(Nc2nc(/C=C/c3cccc(Cl)c3)nc3ccccc23)c1 | 
 | > 25 µM | > 25 µM |  |  | 0% | COc1cccc(/C=C/c2nc3ccccc3c(=O)[nH]2)c1 | 
11.2 µM | 21.7 µM | 16.4 µM | 16.6 µM | 17.5 µM | 0% | COc1ccccc1/C=C/c1nc(Nc2cccc(O)c2)c2ccccc2n1 | 
 |  |  |  |  |  | CCN(CC)CCCC(C)Nc1nc(/C=C/c2cc(OC)c(OC)cc2Cl)nc2cc(Cl)ccc12 (centres undefined) | inhibition [6]: 80%; IC50 [7]: > 100 µM; IC50 [8]: 5.15 µM; inhibition [9]: 0%; IC50 [10]: 6.85 µM; inhibition [11]: 70%; IC50 [12]: 7.74 µM; inhibition [13]: 50%; IC50 [14]: 4.81 µM
18.9 µM | > 25 µM | 16.1 µM | > 25 µM | > 25 µM | 0% | COc1ccccc1/C=C/c1nc(Nc2ccccc2Cl)c2ccccc2n1 | 
 |  |  |  |  | 44% | CNC(=O)c1ccccc1Sc1ccc2c(/C=C/c3ccccn3)n[nH]c2c1 | 
10.8 µM | 10.8 µM | 13.3 µM | 11.6 µM | 14.4 µM | 1% | COc1ccccc1/C=C/c1nc(NCc2ccc3c(c2)OCO3)c2ccccc2n1 | 
15.6 µM | > 25 µM | > 25 µM | 16.4 µM | 23.2 µM | 24% | CC(=O)Oc1ccccc1/C=C/c1nc(Nc2ccccc2I)c2ccccc2n1 | 
 | > 25 µM | > 25 µM |  |  | 0% | CCOc1ccc(/C=C/c2nc3ccccc3c(=O)[nH]2)cc1 | 
1.11 µM | 3.58 µM |  | 23.7 µM | 0.71 µM | 92% | Cc1nc(Nc2ncc(C(=O)Nc3c(C)cccc3Cl)s2)cc(N2CCN(CCO)CC2)n1 [DASATINIB] | 
10.1 µM | 10.9 µM | 10.8 µM | 15.4 µM | 11.2 µM | 0% | O=[N+]([O-])c1cccc(/C=C/c2nc(Nc3cccc(O)c3)c3ccccc3n2)c1 | IC50 [5]: 0.88 µM
4.86 µM | 15.9 µM | 13.7 µM | 9.88 µM | 7.72 µM | 90% | COc1ccccc1/C=C/c1nc(Nc2ccc3c(c2)OCO3)c2ccccc2n1 | IC50 [5]: 0.237 µM; IC50 [15]: 0.191 µM
 |  |  |  |  |  | Cc1ccc2nc(/C=C/c3ccccn3)nc(N[C@H]3CC[C@@H](N)C[C@H]3C)c2c1 | Ki (Nociceptin receptor): 0.002 µM
> 25 µM |  |  | > 25 µM | > 25 µM | 0% | Cc1ccc(NC(=O)c2ccc(CN3CCN(C)CC3)cc2)cc1Nc1nccc(-c2cccnc2)n1 [IMATINIB] | 
14.7 µM | 22.9 µM | 22.9 µM | 20.8 µM | > 25 µM | 0% | COc1ccc(/C=C/c2nc(Nc3cccc(O)c3)c3ccccc3n2)cc1 | 
8.29 µM | > 25 µM | 17.9 µM | 13 µM | 13.8 µM | 0% | COc1ccccc1/C=C/c1nc(Nc2ccc(O)cc2)c2ccccc2n1 | 
 |  |  |  |  |  | CCN(CC)CCCNc1nc(/C=C/c2ccc(OC)cc2)nc2ccc(Br)cc12 | inhibition [16]: 0%
